Data published in patent US20130071897A1, “METHOD FOR CONTROLLING UNDESIRABLE BYPRODUCTS FORMATION CAUSED BY CONTAMINATING ORGANISMS IN THE PRODUCTION OF ETHANOL FROM SYNGAS” (COSKATA, INC., priority 2011, published 2013).
Several values for one entry are separate records, joined by “and”; a condition that tells them apart may be missing. Equal entries are not always repeated.

Key:
acyl-CoA dehydrogenases = experiment: In vitro acyl-CoA dehydrogenase ferrocenium assay with C. tyrobutyricum cell-free extract; format: biochemical; conditions: 0.5 to 10 mM compound, rate of ferrocenium reduction at 300 nm
Method in brief: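 Lysozyme-lysed cell-free extract of early-log C. tyrobutyricum was assayed anaerobically at laboratory temperature in 50 mM Tris-HCl pH 7.6 with 0.05 mM butyryl-CoA, FAD and 0.4 mM ferrocenium. Ferrocenium reduction was followed at 300 nm over 10–20 min, and the rate slope was plotted against compound concentration to give a dose-response slope.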

[1] = tested on: Clostridium tyrobutyricum; experiment: Serum bottle batch fermentation of Clostridium tyrobutyricum on fructose, optical density; format: cell-based; conditions: for O.D. Response: 5 mM, duplicates A and B
Protocol: Ethyl 3-(trifluoromethyl)benzoate is evaluated in a series of batch fermentations to determine the growth response of butyrogens to the presence of this compound at varying concentrations. The batch fermentations are conducted by anoxically filling 100 mL serum bottles with 15 mL of media having the composition given in Tables 12 and 13. About 0.15 mL of a 50% w/w solution of fructose in water (final fructose concentration about 5 g/L) is provided in the bottles. Duplicate runs are conducted for each concentration.
(§1) Each bottle is inoculated with 1.5 mL of seed culture inoculum of the strict butyrogen Clostridium tyrobutyricum, which has an OD of about 0.40 (which upon a 10 times dilution provides a starting OD for the fermentation of about 0.04). The bottles are maintained at a temperature of 37° C. Two hours after inoculation of the bottles with the bacteria, the compound is added to different bottles as a solution in 50 μL of N-methylpyrrolidone in the amounts indicated in Table 15. The fermentation process is allowed to progress at 37° C. At selected intervals of time, bacterial growth is measured by reading the optical density (OD) of the fermentation liquid. Optical density is measured by anoxically removing an aliquot of fermentation liquid and adding it to a disposable cuvette. OD's ranging between 0.01 and 0.4 are measured directly, while OD's greater than 0.4 are measure after performing a 1/10 dilution with water.
In this example ethyl 4,4,4-trifluoro-3-(trifluoromethyl)crotonate and ethyl 3-trifluoromethyl-4-methoxybenzoate are evaluated by batch fermentation. The batch fermentations are conducted by anoxically filling 100 mL serum bottles with 15 mL of media having the composition given in Tables 12 and 13. About 0.15 mL of a 50% w/w solution of fructose in water (final fructose concentration about 5 g/L) is provided in the bottles. Duplicate runs are conducted for each concentration.
as §1, with “of about 0.42 (which upon” for “of about 0.40 (which upon”, “of about 0.042). The bottles” for “of about 0.04). The bottles”, “in Table 16 and 17. The fermentation” for “in Table 15. The fermentation”, “0.4 are measured after performing” for “0.4 are measure after performing”

Compound	Dose-Response Slope (acyl-CoA dehydrogenases)	O.D. Response to Varying Inhibitor Concentrations ([1]; 100 ppm, 22.5 Hours, added 25 h after inoculation)	O.D. Response to Varying Inhibitor Concentrations ([1]; 100 ppm, 28.5 Hours)	O.D. Response to Varying Inhibitor Concentrations ([1]; 100 ppm, 43.5 Hours)	O.D. Response to Varying Inhibitor Concentrations ([1]; 250 ppm, 22.5 Hours, added 25 h after inoculation)	O.D. Response to Varying Inhibitor Concentrations ([1]; 250 ppm, 28.5 Hours)	O.D. Response to Varying Inhibitor Concentrations ([1]; 250 ppm, 43.5 Hours)	O.D. Response to Varying Inhibitor Concentrations ([1]; 500 ppm, 22.5 Hours, added 25 h after inoculation)	O.D. Response to Varying Inhibitor Concentrations ([1]; 500 ppm, 28.5 Hours)	O.D. Response to Varying Inhibitor Concentrations ([1]; 500 ppm, 43.5 Hours)	O.D. Response to Varying Inhibitor Concentrations ([1]; 1000 ppm, 22.5 Hours, added 25 h after inoculation)	O.D. Response to Varying Inhibitor Concentrations ([1]; 1000 ppm, 28.5 Hours)	O.D. Response to Varying Inhibitor Concentrations ([1]; 1000 ppm, 43.5 Hours)	Dose-Response Slope (acyl-CoA dehydrogenases; listed as Ethyl 4,4,4-trifluoro-3-(trifluoromethyl)crotonate)	O.D. Response ([1]; 0 Hours, added 2 h after inoculation)	O.D. Response ([1]; 2 Hours, added 2 h after inoculation)	O.D. Response ([1]; 4.5 Hours)	O.D. Response ([1]; 6 Hours)	O.D. Response ([1]; 24 Hours)
CCOC(=O)/C=C(\N)C(F)(F)F [B, ethyl-3-amino-4,4,4-trifluorocrotonate]	25	0.84	1.48	1.53	0.86	1.87	1.92	0.80	0.93	1.00	0.70	0.77	0.78						
CCOC(=O)C=C(C(F)(F)F)C(F)(F)F [Compound A, ethyl 4,4,4-trifluoro-3-(trifluoromethyl)crotonate]	about 8													8	0.42	0.10	0.14 and 0.11	0.13	0.12
